Assay results reported in patent publication US7250397B2, “Antiarrhythmic peptides” (Zealand Pharma A/S, priority 2000, dated 2007).

What was measured:
[1] = test system: human osteoblast; test: Lucifer Yellow dye transfer in human osteoblasts; type: cell-based; conditions: 10 minutes; after 48 hours hypoxia 3-6% O2 (7 cells before)
Protocol: Human osteblast cells (hOB): Cells were isolated from human bone marrow obtained by puncture of the posterior iliac spine of healthy volunteers (aged 20-36): 10-15 ml marrow material was collected in 15 ml PBS+Ca,Mg (Life Technologies, Cat.No. 14040) with 100 U/ml Heparin (Sigma, Cat.No. H-3149). The mononuclear fraction of the marrow was isolated on a Lymphoprep gradient (Nycomed Pharma, Cat.No. 1001967), by centrifugation at 2200 rpm for 30 min. After harvesting, the mononuclear fraction was washed once with culture medium and centrifuged at 1800 rpm for 10 min. Subsequently cells were counted and plated in culture medium at 8×10^6 cells/100 mm dish. hOB medium (all reagents obtained from Life Technologies): MEM w/o Phenol Red w/Glutamax (Cat.No. 041-93013) supplemented with 10% heat inactivated fetal calf serum (Cat.No. 10106) and 0.1% Penicillin/Streptomycin (Cat.No. 15140). Medium was changed the following day and the cells were cultured at 37° C. in 5%CO2 with medium change every 7 days. […]
To assess the effect of the compound on direct cellular coupling, microinjection experiments were performed according to the method described above. […] After 30 seconds, the number of cells containing dye was assessed. […] Then cellular coupling was re-assessed by microinjecting LY, and at this point the dye was only passed to an average of 7 cells (n=10).

[2] = test system: phospho-inositol turnover in neonatal rat cardiomyocytes; test: Phosphoinositol turnover in rat primary cardiomyocytes; type: cell-based; conditions: 100 nM; control conditions
Protocol: Neonatal Wistar rats (1-2 days old) are used. Hank's calcium- and magnesium-free balanced salt solution, buffered with 10 mM HEPES is used for washing during cell separation procedures. The hearts are excised, the ventricles isolated and the tissue cut into small pieces. The myocardial cells are isolated by stepwise enzymatic degradation with collagenase 0.05%, as described by^[35]. After repeated rounds of centrifugation and washing, the precipitated cells are resuspended in culture medium M199 with Earle's salt, 10% NCS, penicillin (75 U/mL), and streptomycin (75 U/mL) and pre-plated in a Petri dish for 90 minutes. The non-adherent cells are collected in the culture medium and plated in multidishes at 2.5*10^5 cells/well. The cultures are kept in a water-saturated CO2-incubator at 37° C. The cardiomyocyte cultures are used for analyses after 6-7 days.
Cardiomyocyte cultures are incubated for 48 hours in culture medium containing […] myo-[2-^3H]inositol to label the inositol phospholipids. On the day of analysis the medium is replaced by a buffer solution containing lithium and incubated at 37° C., as described by Meier et al.^[36]. After at least five minutes this buffer is replaced by the same volume of buffer containing test compound and incubated for exactly 20 minutes. The reaction is stopped by rapid replacement of the buffer by ice cold 4% v/v perchloric acid (PCA) and incubation for at least 20 minutes at 0° C. The PCA-extract is neutralised and the [^3H]inositol phosphates are separated by anion-exchange chromatography using Amprep™ columns containing 100 mg SAX Quaternary amine. The [^3H]inositol mono-phosphates are eluted and radioactivity in the fraction measured by liquid scintillation counting.
Before adding test substances to the cultures, the cells are depleted of glucose and oxygen by incubating them in a N2-atmosphere in glucose-free lithium-buffer for 10 minutes at 37° C. Control cells are incubated likewise only at normal atmospheric conditions and in a buffer containing glucose.

[3] = test system: calcium-induced arrythmias; test: Calcium-induced arrhythmia model in mice; type: in vivo; conditions: mouse, in vivo, iv
Protocol: The antiarrhythmic effects of compounds of this invention were tested in an in vivo model of calcium-induced arrythmias according to the model of Lynch et al.^[37]. […]. Commercial solutions of hypnorm and midazolam were diluted 1:1 in distilled water and one part diluted Hypnorm® is mixed with one part diluted midazolam.
The anaesthesia was induced by s.c. administration in a dose of 0.05-0.075 μl/10 gram mouse. An i.v cannula was inserted into the tail vein. The lead II ECG signal was recorded continuously by positioning of a stainless steel ECG electrodes on the right forelimb and on the left hind limb. The ground electrode was placed on the right hind limb. The signal was amplified (x 5.000-10.000) and filtered (0.1-150 Hz) via a Hugo Sachs Electronic model 689 ECG module. The analogue signal was digitised via a 12 bit data acquisition board (Data Translation model DT321) and sampled at 1000 Hz using the Notocord HEM 3.1 software for Windows NT. After a 10-min equilibration period, the test sample of drug was injected into the tail vein. Mice pre-treated with vehicle were tested as a measure of the control level in untreated animals. The injection volume was 100 μl in all experiments. Infusion of CaCl2 (30 mg/ml, 0.1 ml/min≈100 mg/kg/min (calciumchlorid-2-hydrat, Riedel-de Häen, Germany)) was started 3 min after i.v. administration of drug or vehicle. The time lag to onset of 2nd degree AV-block was determined as the time from the start of CaCl2 infusion until the first arrhythmic event occured. An event of 2nd degree AV-block was defined as intermittent failure of the AV conduction characterised by a P-wave without the concomitant QRS complex.
Responses were expressed relative to the time until 2nd degree AV-block occurred in vehicle treated mice.

“Ac-D-Tyr-D-Pro-D-4Hyp-Gly-D-Ala-Gly-NH2 [Compound 2]” was tested, and the “dye transfer, number of cells” value [1] was 9 cells, the “effect on noradrenaline (300 nM) induced increase in phospho-inositol turnover” value [2] was “no further effect” and the In vivo activity [3] was “+++ (key: +++: >60% increase in time until arrhythmia; ++: 30-50% increase in time until arrhythmia; +: 15-29% increase in time until arrhythmia; (+): ≦15% increase in time until arrythmia)”.
